Data: US11746110B2, “Alkynyl (hetero) aromatic ring compounds used for inhibiting protein kinase activity” (Shenzhen TargetRx, Inc., priority 2018, dated 2023)
pIC50: −log10 of the molar value.

What was measured:
ABL = ABL (Homo sapiens (Human), UniProt P00519); assay: Biochemical kinase analysis, ABL; conditions: kinase inhibition assay
Procedure: (§1) Reagents and materials: ABL (ThermoFisher, Cat. No. PV3585), ABL^T315I(Thermo Fisher, Cat. No. PR7429B), Ret (Carna, Cat. No. 08-159-10 ug), RET^V804M, Active (Signalchem, Cat. No. R02-12GG), ATP (Sigma, Cat. No. A7699-1G), DMSO (Sigma, Cat. No. D2650), 96-well plate (Corning, Cat. No. 3365), 384-well plate (Greiner, Cat. No. 784076), buffer solution (Thermo Fisher, Cat. No. PR4876B).
(§2) Compound formulation: The test compounds were dissolved in DMSO to prepare a 20 mM stock solution. Before use, the compounds were diluted in DMSO to 0.1 mM, and diluted into 11 concentrations with a 3-fold gradient. When addition, dilutions of 4-fold final concentration were then made with buffer solution.
(§3) Kinase assay method: After preparing the buffer, the enzyme was mixed with pre-formulated and diluted compounds of different concentrations in duplicate for each concentration, and placed at room temperature for 30 minutes. The corresponding substrate and ATP were added thereto, and reacted at room temperature for 60 minutes (both a negative and a positive control were set). After the reaction, antibody was added for detection, Evnvision detection was carried out after 60 minutes incubation at room temperature, and data was collected. Data analysis and fitting were made according to XLfit5 software.

ABL^T315I = ABL^T315I (Homo sapiens (Human), UniProt P00519, T315I); assay: Biochemical kinase analysis, ABL T315I; conditions: kinase inhibition assay
Procedure: as §1, §2, §3

Ba/F3 parental cells = assay: Cell proliferation analysis, Ba/F3 parental; type: cell-based; conditions: Mus musculus, BaF3, 72 h; 3 days, CellTiter-Glo, 8 ng/ml IL-3
Procedure: (§4) The inhibitory effect of the example compounds on Ba/F3 parental, Ba/F3 Bcr-Abl^T315I, K562, Ba/F3 KIF5B-RET, BaF3 FLT3-ITD cell activity was determined.
(§5) Materials and reagents: RPMI-1640 medium (GIBCO, Catalog No. A10491-01), fetal bovine serum (GIBCO, Catalog No. 10099141), antibiotics (Penicillin-Streptomycin), IL-3(PeproTech), promycin; cell lines: Ba/F3 parental, Ba/F3 Bcr-Abl^T315I, Ba/F3 KIF5B-RET, BaF3 FLT3-ITD, (purchased from American type culture collection, ATCC), K562 live cell detection kit CellTiter-Glo4(Promega, Catalog No. G7572), 96-well black wall transparent flat bottom cell culture plate (Corning, Catalog No. 3340).
(§6) Test method: 1. Preparation of cell plate: Ba/F3 parental, Ba/F3 Bcr-Abl^T315I K563, Ba/F3 KIFSB-RET, BaF3 FLT3-ITD cells were respectively seeded in 96-well plates, and 8 ng/ml IL-3 was added to the Ba/F3 cells, and the cell plates were placed in a carbon dioxide incubator and cultured overnight. 2. The test compounds were dissolved in DMSO, 9 compound concentrations were made with a 3.16-fold gradient dilution in triplicate. 3. Treatment of the cells with compounds: The compounds were transferred to the cell plate with a starting concentration of 10 μM. The cell plate was placed in a carbon dioxide incubator for 3 days. 4. Detection: CellTiter-Glo agent was added to the cell plate, and incubated at room temperature for 30 minutes to stabilize the luminous signal. PerkinElmer Envision multi-label analyzer was used for reading, wherein A represents IC50≤50 nM, B represents IC50 is 50-100 nM, C represents IC50 is 100-500 nM, D represents IC50 is 500-1000 nM, […].

K562 cells = assay: Cell proliferation analysis, K562; type: cell-based; conditions: Homo sapiens, K562, 72 h; 3 days, CellTiter-Glo
Procedure: as §4, §5, §6

Ba/F3 BCR-ABL cells = assay: Cell proliferation analysis, Ba/F3 BCR-ABL; type: cell-based; conditions: Mus musculus, BaF3, 72 h; 3 days, CellTiter-Glo
Procedure: [Worded in the source for another variant; this variant is reported under the same test.] as §4, §5, §6

[1] = test system: Ba/F3 Bcr-Abl^T315I cells; assay: Cell proliferation analysis, Ba/F3 Bcr-Abl T315I; type: cell-based; conditions: Mus musculus, BaF3, 72 h; 3 days, CellTiter-Glo; read-out: IC50 (nM) Ba/F3 BCR-ABL^T315
Procedure: as §4, §5, §6

Ret = Ret (Homo sapiens (Human), UniProt P07949); assay: Biochemical kinase analysis, Ret; conditions: kinase inhibition assay
Procedure: as §1, §2, §3

RET^V804M = RET^V804M (Homo sapiens (Human), UniProt P07949, V804M); assay: Biochemical kinase analysis, RET V804M; conditions: kinase inhibition assay
Procedure: as §1, §2, §3

Ba/F3 KIF5B-RET cells = assay: Cell proliferation analysis, Ba/F3 KIF5B-RET; type: cell-based; conditions: Mus musculus, BaF3, 72 h; 3 days, CellTiter-Glo
Procedure: as §4, §5, §6

BaF3 FLT3-ITD cells = assay: Cell proliferation analysis, BaF3 FLT3-ITD; type: cell-based; conditions: Ba/F3 FLT3-ITD, 72 h; 3 days, CellTiter-Glo
Procedure: as §4, §5, §6

Sequence of Ret (P07949 29-1114): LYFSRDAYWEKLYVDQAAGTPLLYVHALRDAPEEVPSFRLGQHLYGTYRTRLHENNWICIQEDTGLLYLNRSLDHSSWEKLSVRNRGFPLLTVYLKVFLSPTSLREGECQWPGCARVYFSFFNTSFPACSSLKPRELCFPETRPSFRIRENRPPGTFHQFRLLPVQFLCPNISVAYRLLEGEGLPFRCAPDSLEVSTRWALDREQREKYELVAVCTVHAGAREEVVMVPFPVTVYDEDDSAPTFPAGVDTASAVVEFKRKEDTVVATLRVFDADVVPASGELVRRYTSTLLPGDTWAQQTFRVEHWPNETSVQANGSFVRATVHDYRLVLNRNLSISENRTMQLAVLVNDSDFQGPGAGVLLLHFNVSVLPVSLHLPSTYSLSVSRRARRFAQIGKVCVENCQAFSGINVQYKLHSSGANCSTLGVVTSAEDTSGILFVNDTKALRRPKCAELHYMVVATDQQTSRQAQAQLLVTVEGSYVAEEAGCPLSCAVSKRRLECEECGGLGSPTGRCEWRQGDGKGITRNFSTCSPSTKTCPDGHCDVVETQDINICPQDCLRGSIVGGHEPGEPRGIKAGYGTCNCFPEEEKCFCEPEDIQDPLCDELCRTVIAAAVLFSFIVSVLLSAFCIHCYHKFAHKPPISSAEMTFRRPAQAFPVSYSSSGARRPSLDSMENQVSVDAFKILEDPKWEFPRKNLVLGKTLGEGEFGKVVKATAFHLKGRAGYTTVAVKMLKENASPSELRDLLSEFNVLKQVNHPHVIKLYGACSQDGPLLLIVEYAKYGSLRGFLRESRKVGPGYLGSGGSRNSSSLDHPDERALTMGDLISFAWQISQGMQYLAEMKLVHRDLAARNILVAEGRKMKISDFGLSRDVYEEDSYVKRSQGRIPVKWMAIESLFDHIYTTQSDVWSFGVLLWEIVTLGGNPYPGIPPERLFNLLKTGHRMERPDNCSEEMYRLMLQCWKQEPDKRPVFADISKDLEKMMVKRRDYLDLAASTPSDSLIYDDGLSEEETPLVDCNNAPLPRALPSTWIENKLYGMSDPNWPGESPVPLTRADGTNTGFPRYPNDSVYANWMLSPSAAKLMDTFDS
Sequence of RET^V804M (P07949 29-1114 V804M): as the sequence (P07949 29-1114) above, with V776M counted along it

Row | pIC50 (ABL) | pIC50 (ABL^T315I) | IC50 (K562 cells) | IC50 (Ba/F3 BCR-ABL cells) | IC50 [1] | pIC50 (Ret) | pIC50 (RET^V804M) | IC50 (Ba/F3 KIF5B-RET cells) | IC50 (BaF3 FLT3-ITD cells) | Compound | IC50 (Ba/F3 parental cells)
1 | 8.59 | 8.19 | 0.96 nM | 6.29 nM | 35.8 nM |  |  |  |  | COCCn1cc(Nc2nccn3c(C#Cc4cc(NC(=O)c5cccc(C(F)(F)F)c5)ccc4C)cnc23)cn1 [Example 8, N-(3-((8-((1-(2-methoxyethyl)-1H-pyrazol-4-yl)amino)imidazo[1,2-a]pyrazin-3-yl)ethynyl)-4-methylphenyl)-3-(trifluoromethyl)benzamide] | 927 nM
2 | 8.31 | 7.90 | 0.97 nM | 9.02 nM | 24.9 nM | 9.31 | 8.00 | 15.8 nM | 23 nM | Cc1ccc(C(=O)Nc2cccc(C(F)(F)F)c2)cc1C#Cc1cnc2c(Nc3cnn(C)c3)ccnn12 [Example 14, 4-methyl-3-((8-((1-methyl-1H-pyrazol-4-yl)amino)imidazo[1,2-b]pyridazin-3-yl)ethynyl)-N-(3-(trifluoromethyl)phenyl)benzamide] | 1550 nM
3 | 8.49 | 8.37 | 0.76 nM | 12.8 nM | 25.2 nM | 9.43 | 8.85 | 4.56 nM | 1.14 nM | Cc1ccc(C(=O)Nc2ccc(CN3CCN(C)CC3)c(C(F)(F)F)c2)cc1C#Cc1cnc2c(Nc3cnn(C)c3)ccnn12 [Example 15, 4-methyl-3-((8-((1-methyl-1H-pyrazol-4-yl)amino)imidazo[1,2-b]pyridazin-3-yl)ethynyl)-N-(4-((4-methylpiperazin-1-yl)methyl)-3-(trifluoromethyl)phenyl)benzamide] | 280 nM
4 | 8.80 | 7.19 | 6.56 nM | 9.61 nM |  |  |  |  |  | Cc1ccc(NC(=O)c2cc(C(C)(C)C)on2)cc1C#Cc1cnc2c(Nc3cnn(C)c3)nccn12 [Example 6, 5-(tert-butyl)-N-(4-methyl-3-((8-((1-methyl-1H-pyrazol-4-yl)amino)imidazo[1,2-a]pyrazin-3-yl)ethynyl)phenyl)isoxazole-3-carboxamide] | 5230 nM
5 |  |  | 12.1 nM |  |  |  |  |  |  | Cc1ccc(NC(=O)Nc2ccc(Cl)c(C(F)(F)F)c2)cc1C#Cc1cnc2c(Nc3cnn(C)c3)ccnn12 [Example 16, 1-(4-chloro-3-(trifluoromethyl)phenyl)-3-(4-methyl-3-((8-((1-methyl-1H-pyrazol-4-yl)amino)imidazo[1,2-b]pyridazin-3-yl)ethynyl)phenyl)urea] | 1370 nM
6 | 8.38 | 7.24 | 0.26 nM | 4.76 nM | 144 nM |  |  |  |  | Cc1ccc(NC(=O)c2cccc(C(F)(F)F)c2)cc1C#Cc1cnc2c(Nc3cnn(C)c3)ccnn12 [Example 11, N-(4-methyl-3-((8-((1-methyl-1H-pyrazol-4-yl)amino)imidazo[1,2-b]pyridazin-3-yl)ethynyl)phenyl)-3-(trifluoromethyl)benzamide] | 770 nM
7 |  |  | 4.53 nM |  | 291 nM |  |  |  |  | Cc1ccc(NC(=O)Nc2ccc(Cl)c(C(F)(F)F)c2)cc1C#Cc1cnc2c(Nc3cnn(C)c3)nccn12 [Example 7, 1-(4-chloro-3-(trifluoromethyl)phenyl)-3-(4-methyl-3-((8-((1-methyl-1H-pyrazol-4-yl)amino)imidazo[1,2-a]pyrazin-3-yl)ethynyl)phenyl)urea] | 620 nM
8 | 8.18 | 7.99 | 0.5 nM | 5.1 nM | 17 nM | 9.49 | 8.57 | 6.02 nM | 10 nM | Cc1ccc(C(=O)Nc2cccc(C(F)(F)F)c2)cc1C#Cc1cnc2c(Nc3cnn(C)c3)nccn12 [Example 2, 4-methyl-3-((8-((1-methyl-1H-pyrazol-4-yl)amino)imidazo[1,2-a]pyrazin-3-yl)ethynyl)-N-(3-(trifluoromethyl)phenyl)benzamide] | 945 nM
9 | 8.65 |  | 0.27 nM | 7.75 nM |  |  |  |  |  | Cc1ccc(NC(=O)c2ccnc(C(F)(F)F)c2)cc1C#Cc1cnc2c(Nc3cnn(C)c3)ccnn12 [Example 12, N-(4-methyl-3-((8-((1-methyl-1H-pyrazol-4-yl)amino)imidazo[1,2-b]pyridazin-3-yl)ethynyl)phenyl)-2-(trifluoromethyl)isonicotinamide] | 1890 nM
10 | 8.31 | 8.11 | 3.8 nM | 19.7 nM | 50.2 nM |  |  |  |  | Cc1cn(-c2cc(C(=O)Nc3ccc(C)c(C#Cc4cnc5c(Nc6cnn(C)c6)nccn45)c3)cc(C(F)(F)F)c2)cn1 [Example 4, 3-(4-methyl-1H-imidazol-1-yl)-N-(4-methyl-3-((8-((1-methyl-1H-pyrazol-4-yl)amino)imidazo[1,2-a]pyrazin-3-yl)ethynyl)phenyl)-5-(trifluoromethyl)benzamide] | 314 nM
11 | 9.03 | 7.70 | 0.32 nM | 2.75 nM |  |  |  |  |  | COCCn1cc(Nc2nccn3c(C#Cc4cc(NC(=O)c5ccnc(C(F)(F)F)c5)ccc4C)cnc23)cn1 [Example 9, N-(3-((8-((1-(2-methoxyethyl)-1H-pyrazol-4-yl)amino)imidazo[1,2-a]pyrazin-3-yl)ethynyl)-4-methylphenyl)-2-(trifluoromethyl)isonicotinamide] | 4280 nM
12 | 8.01 | 7.17 | 1.3 nM | 15.6 nM | 162 nM |  |  |  |  | Cc1ccc(NC(=O)c2ccc(C)c(C(F)(F)F)c2)cc1C#Cc1cnc2c(Nc3cnn(C)c3)ccnn12 [Example 13, 4-methyl-N-(4-methyl-3-((8-((1-methyl-1H-pyrazol-4-yl)amino)imidazo[1,2-b]pyridazin-3-yl)ethynyl)phenyl)-3-(trifluoromethyl)benzamide] | 1220 nM
13 | 8.48 | 8.46 | 1.32 nM | 10.6 nM | 88 nM |  |  |  |  | Cc1ccc(NC(=O)c2ccc(CN3CCN(C)CC3)c(C(F)(F)F)c2)cc1C#Cc1cnc2c(Nc3cnn(C)c3)nccn12 [Example 5, N-(4-methyl-3-((8-((1-methyl-1H-pyrazol-4-yl)amino)imidazo[1,2-a]pyrazin-3-yl)ethynyl)phenyl)-4-((4-methylpiperazin-1-yl)methyl)-3-(trifluoromethyl)benzamide] | 340 nM
14 | 8.57 |  | 1.27 nM | 17.3 nM | 56.1 nM |  |  |  |  | COCCn1cc(Nc2nccn3c(C#Cc4cc(NC(=O)c5cc(C(C)(C)C)on5)ccc4C)cnc23)cn1 [Example 10, 5-(tert-butyl)-N-(3-((8-((1-(2-methoxyethyl)-1H-pyrazol-4-yl)amino)imidazo[1,2-a]pyrazin-3-yl)ethynyl)-4-methylphenyl)isoxazole-3-carboxamide] | 2680 nM
